From US20240024294A1, “COMPOSITIONS AND METHODS FOR THE TREATMENT OR PREVENTION OF PRETERM LABOR” (XOMA (US) LLC, priority 2020, published 2024)
pKi: −log10 of the molar value.

Legend:
human PGF2α receptor = human PGF2α receptor (Homo sapiens, UniProt P43088); conditions: competitive radioligand binding, U.S. Pat. No. 8,415,480, read-out: inhibition constant (Ki); cited from earlier work
[1] = crystal form stability and hygroscopicity; assay type: physicochemical
From the text: For example, this compound is readily crystallized using a several distinct experimental procedures. Compound 3 assumes a single, reproducible crystal form upon crystallization from a variety of media and under different ambient conditions. […] For instance, impurities associated with atmospheric water are not readily integrated into the crystalline form of compound 3.

[2] = target: T1, Pept1 transporter protein (Homo sapiens, UniProt P46059); assay: Pept1 transporter substrate assessment; assay type: in vitro ADME; conditions: compound 2 and salts thereof
T1 sequence (P46059 1-708): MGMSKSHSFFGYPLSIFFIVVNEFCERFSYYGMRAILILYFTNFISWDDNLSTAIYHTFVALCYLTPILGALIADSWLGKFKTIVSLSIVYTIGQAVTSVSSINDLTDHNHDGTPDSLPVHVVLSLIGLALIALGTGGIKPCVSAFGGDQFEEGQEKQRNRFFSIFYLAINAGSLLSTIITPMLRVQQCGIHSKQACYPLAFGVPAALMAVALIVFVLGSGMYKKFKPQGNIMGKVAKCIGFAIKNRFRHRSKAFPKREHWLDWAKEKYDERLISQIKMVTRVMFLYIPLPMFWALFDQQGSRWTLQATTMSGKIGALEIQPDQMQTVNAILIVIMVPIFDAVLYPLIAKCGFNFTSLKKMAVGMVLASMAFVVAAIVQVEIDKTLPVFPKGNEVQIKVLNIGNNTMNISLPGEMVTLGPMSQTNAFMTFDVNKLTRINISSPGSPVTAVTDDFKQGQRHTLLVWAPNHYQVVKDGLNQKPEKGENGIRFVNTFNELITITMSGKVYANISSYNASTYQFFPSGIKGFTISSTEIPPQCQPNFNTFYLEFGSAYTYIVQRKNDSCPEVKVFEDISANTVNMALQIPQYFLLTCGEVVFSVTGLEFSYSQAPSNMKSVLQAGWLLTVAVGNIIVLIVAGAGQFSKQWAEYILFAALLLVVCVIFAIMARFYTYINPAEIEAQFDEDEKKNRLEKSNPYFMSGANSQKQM
From the text: Compound 2 is de-esterified by ambient esterases in the small intestine and subsequently penetrates the small intestinal epithelium passively. […] Pept1 is known to mediate the absorption of a variety of valinate esters, as described, for example, in Vig et al., Adv. Drug Deliv. Rev. 65:1370-1385 (2013). […] Despite the presence the valinate ester functionality, compound 2 and salts thereof are not dependent upon this transporter for absorption across the small intestinal epithelium. […] Rather, compound 2 and salts thereof are converted in vivo to a form that is readily absorbed in a manner independent of energy and local proton gradient. This beneficial property, coupled with the high aqueous solubility of compound I and salts thereof, fosters a pharmacokinetic profile in which compound 2 and salts thereof readily dissolve in an aqueous environment and are in turn converted into a form capable of transported-independent absorption.

[3] = tested on: pregnant women with threatened spontaneous preterm labor; assay: Phase II clinical trial Part A: time to delivery; assay type: in vivo, human
Experimental: This example reports results of a Phase II clinical trial of compound (2) in pregnant women with threatened spontaneous preterm labor. In part A of the study, compound (2) was administered in open-label fashion to n=9 patients with gestational ages of from 28 to 34 weeks in order to assess pharmacokinetics and safety. In part B of the study, compound (2) was administered to a more expansive set of n=58 subjects in order to assess efficacy, as well as to further evaluate safety.
(§1) Subjects participating in Part A of the study were diagnosed with preterm labor and were already receiving an atosiban infusion for 48 hours. Compound (2) was administered orally to each subject in an amount of 500 mg twice daily for 7 days, with a loading dose of 1,000 mg on Day 1.
(§2) In Part A of the study, fetal cardiac safety was monitored using Doppler ultrasound, and compound (2) pharmacokinetics were assessed on days 1, 2, 3 and 7 of the study. Amniotic Fluid Index was monitored from days 1 to 14. Time to delivery was also assessed.

[4] = Phase II clinical trial Part A: plasma pharmacokinetics; assay type: in vivo, human
Experimental: as §1, §2

[5] = tested on: pregnant women with threatened spontaneous preterm labor; assay: Phase II clinical trial Part A: safety (Doppler ultrasound, Amniotic Fluid Index, adverse events); assay type: in vivo, human
Experimental: as §1, §2

[6] = tested on: pregnant women with threatened spontaneous preterm labor; assay: Phase II clinical trial Part B: efficacy to delay preterm birth; assay type: in vivo, human
Experimental: (§3) A total of n=58 patients were treated with compound (2) and atosiban, and n=55 patients were treated with placebo and atosiban. As in part A, patients underwent a 48-hour infusion with atosiban. On the first day of atosiban treatment, patients were administered either placebo or compound (2) in a loading dose of 1,000 mg. On subsequent days, patients were then administered either placebo or compound (2) twice daily in an amount of 500 mg per dose until delivery.
Gestational age was confirmed by a first trimester ultrasound scan or by fertilization date. […] Subjects were required to begin treatment with atosiban within 24 hours before starting study treatment.
All participants received intravenous atosiban as standard-of-care therapy according to the approved product label for 48 hours. Treatment with study medication was to be initiated ideally simultaneously or at a maximum within 24 hours after initiating atosiban treatment. The loading dose of compound (2) was 1000 mg, with a maintenance dose of 500 mg twice a day, each 12 hours apart, for 7 days. Women allocated to the control group received the same dosing regimen with placebo. Subjects were instructed to record IMP administration in a patient diary and had to bring both opened and unopened IMP packages to each visit, in order to allow the assessment of compliance with study treatment.
Efficacy to delay preterm birth was assessed using the following outcomes: • delivery within 48 hours from start of treatment medication; • delivery within 7 days from start of treatment medication; • delivery before 37 weeks gestational age; and • time to delivery measured from start of treatment medication.
As this study was a proof-of-concept study, a primary efficacy endpoint was not prospectively defined. Other outcomes included the following: • uterine contractions assessed by electrohysterography, tocodynamometry, or abdominal palpation at each hour during the first 6 hours after start of test treatment; and • maternal plasma concentrations and pharmacokinetics of compound (1) (the active metabolite of compound (2)) and fetal cord blood concentrations at the time of delivery.
Analyses of the incidence of delivery within 2 days (48 h), within 7 days (168 h) post-compound (2) administration start, and before 37 weeks of gestational age was performed using logistic regression with treatment group as the independent variable. Strata effects (gestational age and number of fetuses) were included within the model. The treatment effect was expressed as an adjusted odds ratio with 90% confidence intervals. Treatment by strata interaction terms were explored. Other covariates explored included the pre-dose uterine contraction rate as well as the possibility of a site-to-site effect. Time to delivery measured from start of IMP administration was analyzed using Cox's proportional-hazards model. In addition, a log-rank test was performed. The analysis was performed using SAS® statistical software Version 9.4. P-values <0.10 were considered to indicate statistical significance.

[7] = tested on: pregnant women with threatened spontaneous preterm labor; assay: Phase II clinical trial Part B: adverse events; assay type: in vivo, human; conditions: patients undergoing atosiban infusion
Experimental: as §3
All participants received intravenous atosiban as standard-of-care therapy according to the approved product label for 48 hours. […]
Safety was assessed by way of the following outcomes: • maternal incidence of adverse events (AEs), treatment-emergent adverse events (TEAEs), clinically significant changes in laboratory safety tests, and vital signs from Day 1 until 28 days after birth; • incidence of AEs indicating fetal distress, such as growth retardation and/or changes in fetal heart rate monitoring and/or amniotic fluid index (AFI) or amniotic fluid volume (in twins); and incidence of neonates experiencing adverse events, as well as clinically significant changes in vital signs, Apgar score, weight and head circumference at birth, and a measure of neonatal morbidity from birth until 28 days after birth.

[8] = relative to compound 1; cited from earlier work

human PGF2α receptor, sequence (P43088 whole entry): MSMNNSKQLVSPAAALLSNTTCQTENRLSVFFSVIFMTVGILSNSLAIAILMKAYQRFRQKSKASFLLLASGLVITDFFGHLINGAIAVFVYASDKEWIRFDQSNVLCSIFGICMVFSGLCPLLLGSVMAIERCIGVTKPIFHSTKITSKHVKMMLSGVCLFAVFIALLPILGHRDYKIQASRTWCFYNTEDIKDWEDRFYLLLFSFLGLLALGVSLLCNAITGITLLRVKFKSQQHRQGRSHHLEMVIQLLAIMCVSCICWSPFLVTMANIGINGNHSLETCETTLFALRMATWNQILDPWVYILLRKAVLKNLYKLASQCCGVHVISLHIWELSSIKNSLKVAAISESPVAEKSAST

O=C(N[C@@H](CCO)c1ccc(F)cc1)C1SCCN1S(=O)(=O)c1ccc(-c2ccccc2)cc1 (stereo in doubt) [Compound 1, 3-([1,1′-biphenyl]-4-ylsulfonyl)-N-[1-(4-fluorophenyl)-3-hydroxypropyl]-1,3-thiazolidine-2-carboxamide]
pKi (human PGF2α receptor): 8.22

CC(C)[C@H](N)C(=O)OCC[C@H](NC(=O)[C@@H]1SCCN1S(=O)(=O)c1ccc(-c2ccccc2)cc1)c1ccc(F)cc1.Cl [Compound 3, (3S)-3-({[(2S)-3-(biphenyl-4-ylsulfonyl)-1,3-thiazolidin-2-yl]carbonyl}-amino)-3-(4-fluorophenyl)propyl L-valinate hydrochloride]
hygroscopicity [1]: low hygroscopicity
stability of crystal form ([1]; ambient conditions and elevated relative humidity): extended stability

CC(C)[C@H](N)C(=O)OCC[C@H](NC(=O)[C@@H]1SCCN1S(=O)(=O)c1ccc(-c2ccccc2)cc1)c1ccc(F)cc1 [compound (2), (3S)-3-({[(2S)-3-(biphenyl-4-ylsulfonyl)-1,3-thiazolidin-2-yl]carbonyl}-amino)-3-(4-fluorophenyl)propyl L-valinate]
substrate for the Pept1 transporter protein [2]: not substrates
patients that did not deliver within 7 days of administration ([3]; 9 singleton patients, 1,000 mg loading then 500 mg twice daily oral 7 days, on 48 h atosiban infusion): 8 patients
Mean±SD time to delivery ([3]; 9 singleton patients, oral compound (2) 7 days, on atosiban infusion): 41 ± 23 days
plasma concentrations and pharmacokinetic parameters compared with non-pregnant women ([4]; Part A): similar
day on which steady-state concentrations were achieved ([4]; Part A, 1,000 mg loading dose on Day 1): 1 days
absorption (plasma concentration vs. time profiles) ([4]; Part A, oral, day 1 to day 7, on atosiban): well absorbed
plasma concentrations and pharmacokinetic parameters compared with non-pregnant women ([4]; Part A, listed as Compound (2)): comparable
adverse events reported for the fetuses [5]: No adverse events
Amniotic Fluid Index ([5]; days 1 to 14 (FIG. 3)): no clinically significant changes
Doppler ultrasound findings, effect on the ductus arteriosus ([5]; fetal cardiac safety): no constrictive effect on the ductus arteriosus
tolerability ([5]; oral administration for 7 days, women receiving atosiban): well tolerated
ductus arteriosus Pulsatility Index ([5]; over the dosing period (FIG. 2)): did not decrease
OR (90% CI), delivery ≤48 h ([6]; all women, atosiban + compound (2) vs atosiban + placebo, adjusted odds ratio): 0.52
OR (90% CI), delivery ≤7 days ([6]; all women, vs atosiban + placebo): 1.00
reduction in uterine contractions relative to baseline ([6]; in combination with atosiban, vs atosiban and placebo (FIG. 7)): more sustained reduction
delivery rate within 7 days ([6]; singleton pregnancy, 24 to 30 weeks GA): 14.3%
OR (90% CI), delivery ≤7 days ([6]; singletons only, GA 24 to 30 wks at BL, vs atosiban + placebo): 0.53
OR (90% CI), delivery ≤48 h ([6]; singletons only, vs atosiban + placebo): 0.39
OR (90% CI), delivery ≤48 h ([6]; twins only, vs atosiban + placebo): 2.05
adverse events compared with placebo [7]: fewer adverse events
solubility in water and in FeSSIF and FaSSIF media [8]: improvements
